As usually defined, the Kd is the equilibrium constant for the complex coming apart.

The results in this text go back to article PMC5498006 (Biochemistry, 2016).

The target in the assay is T1, CCL21 (CC chemokine ligand 21), truncated (Homo sapiens, UniProt O00585).
T1 sequence (O00585 24-102): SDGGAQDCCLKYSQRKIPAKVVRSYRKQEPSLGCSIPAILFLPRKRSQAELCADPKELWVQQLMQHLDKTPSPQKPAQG
The experiment in a line: 2D 1H-15N HSQC NMR titration. It counts as binding.

As to `N[C@@H](Cc1ccc(OS(=O)(=O)O)cc1)C(=O)O` [sY, sulfotyrosine], the Kd was ~38.9 mM.
